Paper PMC9968064, “First Synthesis of DBU-Conjugated Cationic Carbohydrate Derivatives and Investigation of Their Antibacterial and Antifungal Activity” (International Journal of Molecular Sciences, 2023)
Entries after “also recorded” stand apart in the source; their conditions may differ. Where two headings read alike, the source gives them in different places.

Experiments:
[1] = system: Escherichia coli (ATCC 8739); assay: MIC determination (antibacterial susceptibility test, CLSI / Hungarian Pharmacopeia); assay type: cell-based; conditions: Escherichia coli, ATCC8739, tested range 6.25–100 µg/mL
Procedure: (§1) The antimicrobial activity of twenty-two cationic hexopyranoside-amidinium salts (3, 10, 11, 12, 21, 22, 23, 24, 29, 30, 32, 37, 38, 45, 46, 47, 48, 49, 50, 51, 52 and 53) were compared in susceptibility tests (Table 2). The effectiveness of all compounds was tested on Staphylococcus aureus ssp. aureus (ATCC 6538), Escherichia coli (ATCC 8739) and Candida albicans (ATCC 10231). We tested the antimicrobial activity of the compounds at the concentration range of 6.25–100 µg/mL.
(§2) The detection of the antibacterial and antifungal effects of the tested compounds and the determination of the minimum inhibitory concentration (MIC) were carried out based on the method of CLSI [48] and Hungarian Pharmacopeia (chapters VIII. 2.6.12–13.).
(§3) For the antimicrobial studies, we used three human pathogens as test organisms: Candida albicans (ATCC 10231), Staphylococcus aureus subspecies aureus (ATCC 6538) and Escherichia coli (ATCC 8739).
(§4) Staphylococcus aureus subspecies aureus and Escherichia coli were cultured on tryptic soya agar (TSA) for 18–24 h at 37 °C. Candida albicans was cultured on Sabouraud dextrose agar (SDA) for 18–24 h at 37 °C. To obtain cells for suspension, we made cell suspensions from Staph. aureus, E. coli and C. albicans with the cotton swab suspension technique. The dilution of suspension was then made with 0.85% NaCl solution, absorbance being set to A600nm = 0.06. a volume of 10 μL of these suspensions contained ~4.5–6.0 × 10^4 colony forming unit (CFU) (bacteria) and ~1.5–2.0 × 10^3 CFU for yeast.
(§5) Tested agents were diluted with DMSO; the concentration of stock solutions was 4 mg/mL; and to ensure sterility, the closed sample containers were incubated at 35 °C for 1 h. The highest final concentration was 100 μg/mL.
(§6) Testing was performed in 24-well plates, and cell suspensions were prepared with 0.85% NaCl solution. Stock solutions were made from the agents with DMSO (100%). Final concentrations of used compounds were 6.25–100 µg/mL. […] After inoculation, plates were incubated at 35 °C, and results were then read visually after 18–24 h. If microbial growth could not be detected, results were read visually after 72 h. If there was no growth after 72 h, incubation was continued till the fifth day of the experiment and the results were read visually and with plate reader at 600 nm after 120 h.
(§7) The MIC value of a compound was defined as the minimal concentration that inhibits the growth of bacteria and yeasts comparing to the control. The results of the antibacterial and antifungal tests were read visually after 24, 48, 72 and 120 h. The microbial growth was measured by plate reader at 600 nm after 120 h.

[2] = system: Staphylococcus aureus ssp. aureus (ATCC 6538); assay: as above; assay type: cell-based; conditions: for MIC: Staphylococcus aureus, ATCC6538, tested range 6.25–100 µg/mL
Procedure: as §1, §2, §3, §4, §5, §6, §7

[3] = system: Candida albicans (ATCC 10231); assay: MIC determination (antifungal susceptibility test); assay type: cell-based; conditions: for MIC: Candida albicans
Procedure: as §1, §2, §3, §4, §5
as §6, with “Final concentrations of used compounds were 6.25–100 µg/mL.” left out
as §7

[4] = system: HaCaT (human keratinocyte) cell line; assay: MTT viability test on HaCaT cells; assay type: cell-based; conditions: 24 h; for IC50: Homo sapiens, HaCaT, 50–3.125 µg/mL; for effect on HaCaT cell viability at antibacterially and antifungally active concentrations: ≤6.25 µg/mL
Procedure: The cytotoxic effect of six selected compounds (3, 10, 12, 21, 22 and 29) with promising antimicrobial activity was studied on HaCaT (human keratinocyte) cell lines. Using the MTT-test, we determined the viability of the cells (Figure 3), and the half maximal inhibitory concentration (IC50) values of the compounds are summarized in Table 4. The duration of tests was 24 h; the examined concentrations were: 50–25–12.5–6.25–3.125 µg/mL. The IC50 value of a compound was defined as the concentration that inhibits cell growth by 50% relative to the control. […], the medium containing the inhibitor was removed, and 10 μL MTT solution was added to the cells. The plates were then incubated for two hours at 37 °C. The medium from the wells was then carefully aspirated, and MTT formazan dissolved with 100 μL of DMSO aided by gentle agitation on a shaker. After 10 min at room temperature, the absorbances were read at 570 nm by an automatic plate reader. The percentage of viability reflecting the respiratory potential of the cell population in each well was expressed as (absorbance of treated cells/absorbance of control cells) × 100. IC50 values of tested agents were determined by Graphpad (Prism) semi-log line fitting (graphpad.com (8)). The MTT test was performed after treatment and removal of inhibitors followed by the addition of 10 μL of MTT solution to the cells. We tested the toxic effect of compounds 3, 10, 12, 21, 22 and 29 on HaCaT cell line. HaCaT is a spontaneously transformed, aneuploid keratinocyte, an adherent cell type derived from the epithelium of Human […] adult skin. The cell line was immortalized in 1986 under low calcium and high-temperature conditions. Cells were cultured in DMEM medium (iBiotech, Szigetszentmiklós, Hungary) containing 10% fetal bovine serum (FBS, iBiotech, Szigetszentmiklós, Hungary) and 1% antibiotic-antimycotic mix (Penicillin–Streptomycin–Neomycin).

rat red blood cells = assay: Hemolytic activity on rat red blood cells; assay type: cell-based, Sprague-Dawley rat; conditions: 15 min, 37 °C; for hemolysis compared to negative control PBS: 6.25 µg/mL; for hemolysis (haemoglobin release): 50 and 100 µg/mL, comparable to water positive control
Procedure: The hemolytic activity of compounds 10 and 22 was determined on freshly isolated rat red blood cells (Figure 4).
Blood was collected from a Sprague-Dawley rat into an EDTA tube. Erythrocytes were separated from blood by centrifugation at 1800 rpm for 8 min, washed 3 times with phosphate buffered saline (PBS), and resuspended in PBS. Aliquots of the cell suspension with the respective red blood cell number of 7 × 10^7 were added to PBS containing increasing concentrations of the test compounds or the vehicle DMSO. After gently mixing, each mixture was incubated at 37 °C for 15 min. The released hemoglobin into the supernatant was separated by a rapid centrifugation at 5000 rpm for 5 min. Finally, the absorbance of the released hemoglobin was measured at 540 nm using a Multiskan Go (ThermoFisher, Waltham, MA, USA) microplate reader. The absorbance values were compared to the absorbance of the sample kept in purified water during the incubation as positive control and given as percent hemolysis.

[5] = system: Lactobacillus plantarum subsp. plantarum (ATCC 14917); assay: Membrane permeabilization by SYTOX green staining; assay type: cell-based; conditions: 6.25 µg/mL; for membrane permeabilization (cellular fluorescence of SYTOX green): Figure 5
Procedure: In membrane permeabilization experiments, the Gram-positive Lactobacillus plantarum was used to test the effect of compounds 10 and 22 at 6.25 µg/mL for 48 h. Bacterial cells were stained with SYTOX green (SG) fluorescent dye, which is impermeable on intact membranes but easily penetrates through compromised membranes.
Lactobacillus plantarum subsp. plantarum (ATCC 14917) was purchased from ATCC (Manassas, VA, USA). The membrane permeabilization ability of compounds 10 and 22 was tested on L. plantarum and determined in the brain heart infusion medium (BHI) (CliniChem Ltd., Budapest, Hungary). Bacterial cells were treated with the test compounds at the final concentration of 6.25 µg/mL and samples were taken at 1, 4, 8, 24 and 48 h. Samples were stained with SYTOX green fluorescent dye (ThermoFischer Scientific, Budapest, Hungary) at 1 µM final concentration for 30 min at 37 °C, and flow cytometric measurements were carried out with a Guava Easy Cyte 6HT-2L flow cytometer (Merck Ltd., Darmstadt, Germany). Green (525/30 nm) and red (695/50 nm) fluorescence channels were used to gate out the cells on a green versus red dot plot. The ratio of the SYTOX green (SG) positive bacterial cells was evaluated.

[6] = system: Escherichia coli (ATCC 8739); set-up: method as in PMID 24144185; conditions: reference antibiotics; cited from earlier work
[7] = system: Staphylococcus aureus ssp. aureus (ATCC 6538); set-up: method as in PMID 22866984; conditions: reference antibiotics; cited from earlier work
[8] = system: Candida albicans (ATCC 10231); set-up: method as in PMID 32349998, PMID 25392352; conditions: reference antifungal; cited from earlier work
[9] = ATCC10231, 10× diluted, tested range 0.625–10.0 µg/mL, read-out: MIC Candida albicans (ATCC 10231), lower concentrations
[10] = ATCC10231, tested range 6.25–100 µg/mL, read-out: MIC Candida albicans (ATCC 10231)

SMILES | MIC [1] [µg/mL] | MIC [2] [µg/mL] | MIC [3, 9] [µg/mL] | MIC [3, 10] [µg/mL] | cytotoxic effect on HaCaT cells (in words) [4] | IC50 [4] [µg/mL] | further results
CNC(C)C1CCC(N)C(OC2C(N)CC(N)C(OC3OCC(C)(O)C(NC)C3O)C2O)O1 (centres unmarked) [Gentamicin] |  |  |  |  |  |  | MIC Escherichia coli (ATCC 8739) [6]: 8 [42] µg/mL; MIC Staphylococcus aureus (ATCC 6538) [7]: 8 [43, 44, 45] µg/mL
CC(C)(O/N=C(\C(=O)N[C@@H]1C(=O)N2C(C(=O)[O-])=C(C[n+]3ccccc3)CS[C@H]12)c1csc(N)n1)C(=O)O [Ceftazidime] |  |  |  |  |  |  | MIC Escherichia coli (ATCC 8739) [6]: 8 [42] µg/mL; MIC Staphylococcus aureus (ATCC 6538) [7]: 8 [43, 44, 45] µg/mL
C[C@@H]1[C@H](O)[C@@H](C)/C=C/C=C/C=C/C=C/C=C/C=C/C=C/[C@H](O[C@@H]2O[C@H](C)[C@@H](O)[C@H](N)[C@@H]2O)C[C@@H]2O[C@](O)(C[C@@H](O)C[C@@H](O)[C@H](O)CC[C@@H](O)C[C@@H](O)CC(=O)O[C@H]1C)C[C@H](O)[C@H]2C(=O)O [Amphotericin B] |  |  |  |  |  |  | MIC Candida albicans (ATCC 10231) [8]: <0.5 [46, 47] µg/mL

Now from value to compound, other results behind:

MIC [1] [µg/mL] | MIC [2] [µg/mL] | MIC [3, 9] [µg/mL] | MIC [3, 10] [µg/mL] | SMILES | cytotoxic effect on HaCaT cells (in words) [4] | IC50 [4] [µg/mL] | further results
≥ 100 | < 6.25 | 2.5 | < 6.25 | c1ccc(CO[C@@H]2[C@H](OCc3ccccc3)[C@@H](Sc3ccccc3)O[C@H](C[N+]3=C4CCCCCN4CCC3)[C@H]2OCc2ccc3ccccc3c2)cc1 [Compound 22] | only slight cytotoxicity; also recorded: greatly reduced toxicity | 10.3 ± 0.41 | effect on HaCaT cell viability at antibacterially and antifungally active concentrations [4]: hardly affected the cell viability; hemolysis compared to negative control PBS (rat red blood cells): did not cause significant hemolysis; hemolysis (haemoglobin release) (rat red blood cells): significantly increased the hemolysis; also recorded: significant haemoglobin release; membrane permeabilization (cellular fluorescence of SYTOX green) [5]: increased membrane permeabilization; ratio of SYTOX green (SG) positive cells ([5]; after 1 h of incubation): increased the ratio of SG-positive cells; ratio of SYTOX green (SG) positive cells ([5]; after 4 h of incubation): drastically increased
> 100 | 6.25 to 50 | 2.5 | < 6.25 | CCS[C@H]1O[C@H](C[N+]2=C3CCCCCN3CCC2)[C@@H](OCc2ccc3ccccc3c2)[C@@H](OCc2ccccc2)[C@H]1OCc1ccccc1 [Compound 29] | only slight cytotoxicity; also recorded: greatly reduced toxicity | 11.9 ± 0.25 | MIC Staphylococcus aureus (ATCC 6538) ([2]; tested range 6.25–100 µg/mL): <12.5 µg/mL
≥ 100 | < 6.25 | 5 | < 6.25 | CCS[C@H]1O[C@H](C[N+]2=C3CCCCCN3CCC2)[C@@H](OCc2ccc3ccccc3c2)[C@H](OCc2ccccc2)[C@H]1OCc1ccccc1 [Compound 10] | only slight cytotoxicity; also recorded: greatly reduced toxicity | 15.3 ± 0.78 | MIC Candida albicans (ATCC 10231), lower concentrations ([3]; 10× diluted, tested range 0.625–10.0 µg/mL): 5.0 µg/mL; effect on HaCaT cell viability at antibacterially and antifungally active concentrations [4]: hardly affected the cell viability; hemolysis compared to negative control PBS (rat red blood cells): did not cause significant hemolysis; hemolysis (haemoglobin release) (rat red blood cells): significantly increased the hemolysis; also recorded: significant haemoglobin release; membrane permeabilization (cellular fluorescence of SYTOX green) [5]: increased membrane permeabilization; ratio of SYTOX green (SG) positive cells ([5]; after 1 h of incubation): increased the ratio of SG-positive cells; ratio of SYTOX green (SG) positive cells ([5]; after 4 h of incubation): drastically increased
> 100 | < 6.25 |  |  | CCS[C@H]1O[C@H](C[N+]2=C3CCCCCN3CCC2)[C@@H](OCc2ccc3ccccc3c2)[C@H](OC(=O)c2ccccc2)[C@H]1OCc1ccccc1 [Compound 12] | significant toxic effect; also recorded: cytotoxic | 4.26 ± 0.16 | 
